Assay results: ChEMBL document CHEMBL4130350, “Discovery, mechanism and metabolism studies of 2,3-difluorophenyl-linker-containing PARP1 inhibitors with enhanced in vivo efficacy for cancer therapy” (Eur J Med Chem, 2017); call rule not given here

Experiments:
[1] = target: Poly [ADP-ribose] polymerase 1 (Homo sapiens, UniProt P09874); test: Inhibition of PARP1 (unknown origin) by ELISA
MDA-MB-436 = test: Antiproliferative activity against human MDA-MB-436 cells after 7 days by CCK8 or SRB assay; assay type: functional, cell-based; settings: MDA-MB-436, 168 h
[2] = Cytotoxicity against BRCA2 deficient Chinese hamster VC8 cells after 3 days by CCK8 or SRB assay; assay type: functional, cell-based; settings: Cricetulus griseus, V-C8, 72 h
V79 = test: Cytotoxicity against BRCA2 expressing Chinese hamster V79 cells after 3 days by CCK8 or SRB assay; assay type: cell-based; settings: Cricetulus griseus, V79, 72 h
[3] = Solubility of the compound in water after 24 hrs by HPLC analysis; assay type: physicochemical
[4] = Drug level in mouse liver microsomes treated with 2-(4-(2,3-Difluoro-5-((4-oxo-3,4-dihydrophthalazin-1-yl)methyl)benzoyl)pipe-razin-1-yl)nicotinonitrile at 2 uM up to 60 mins by LC-MS/MS analysis; assay type: ADME, microsome; settings: 1 h
[5] = Retention time in mouse liver microsomes at 2 uM up to 60 mins in presence of NADPH by LC-MS/MS analysis; assay type: ADME, microsome; settings: 1 h

Sequence of Poly [ADP-ribose] polymerase 1 (P09874 whole entry): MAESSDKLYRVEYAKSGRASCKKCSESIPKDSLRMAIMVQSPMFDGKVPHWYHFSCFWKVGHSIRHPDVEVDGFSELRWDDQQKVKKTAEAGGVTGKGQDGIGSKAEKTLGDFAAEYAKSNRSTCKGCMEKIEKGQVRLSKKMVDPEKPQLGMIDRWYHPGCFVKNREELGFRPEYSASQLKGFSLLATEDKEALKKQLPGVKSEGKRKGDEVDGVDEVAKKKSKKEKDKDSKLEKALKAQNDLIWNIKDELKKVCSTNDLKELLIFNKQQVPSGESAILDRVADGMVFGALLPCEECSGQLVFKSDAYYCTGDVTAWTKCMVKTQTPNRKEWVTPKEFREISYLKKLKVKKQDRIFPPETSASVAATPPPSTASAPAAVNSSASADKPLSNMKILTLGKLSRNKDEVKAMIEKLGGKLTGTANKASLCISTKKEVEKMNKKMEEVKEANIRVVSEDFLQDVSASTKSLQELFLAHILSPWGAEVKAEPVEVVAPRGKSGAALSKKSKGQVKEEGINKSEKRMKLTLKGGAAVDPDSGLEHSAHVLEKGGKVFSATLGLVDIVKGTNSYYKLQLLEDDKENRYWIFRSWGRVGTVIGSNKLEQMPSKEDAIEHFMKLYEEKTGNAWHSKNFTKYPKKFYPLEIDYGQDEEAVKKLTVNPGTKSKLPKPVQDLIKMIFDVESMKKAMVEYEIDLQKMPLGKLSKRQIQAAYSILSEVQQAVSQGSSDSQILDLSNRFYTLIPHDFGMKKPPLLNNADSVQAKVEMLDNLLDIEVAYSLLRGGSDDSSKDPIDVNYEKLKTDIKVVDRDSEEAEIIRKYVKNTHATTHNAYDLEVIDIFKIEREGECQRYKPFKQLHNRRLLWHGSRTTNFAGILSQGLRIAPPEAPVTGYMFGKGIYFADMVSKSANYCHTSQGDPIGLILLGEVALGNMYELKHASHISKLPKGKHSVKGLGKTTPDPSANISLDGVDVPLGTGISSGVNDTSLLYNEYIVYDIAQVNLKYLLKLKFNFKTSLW

| Compound | IC50 [1] | IC50 (MDA-MB-436) | IC50 [2] | IC50 (V79) | other results |
| --- | --- | --- | --- | --- | --- |
| COc1ccc(N2CCN(C(=O)c3cc(Cc4n[nH]c(=O)c5ccccc45)cc(F)c3F)CC2)cc1 | 112 nM | – | – | – | – |
| CCCCN1CCN(C(=O)c2cc(Cc3n[nH]c(=O)c4ccccc34)cc(F)c2F)CC1 | 2.1 nM | < 0.03 nM | 149 nM | 771 nM | – |
| O=C(c1cc(Cc2n[nH]c(=O)c3ccccc23)cc(F)c1F)N1CCN(C(=O)C2CCCO2)CC1 (stereo not drawn) | 2.4 nM | 4.9 nM | 68.1 nM | > 10000 nM | – |
| O=C(c1cc(Cc2n[nH]c(=O)c3ccccc23)cc(F)c1F)N1CCN(c2cccc(Cl)c2)CC1 | 4.2 nM | 396 nM | 1600 nM | 7880 nM | – |
| O=C(c1cc(Cc2n[nH]c(=O)c3ccccc23)cc(F)c1F)N1CCN(c2nccc(Br)n2)CC1 | 110 nM | – | – | – | – |
| N#Cc1ccc(N2CCN(C(=O)c3cc(Cc4n[nH]c(=O)c5ccccc45)cc(F)c3F)CC2)cc1 | 5.4 nM | – | – | – | – |
| O=C(c1cc(Cc2n[nH]c(=O)c3ccccc23)cc(F)c1F)N1CCN(c2cccc(C(F)(F)F)c2)CC1 | 0.8 nM | 23.4 nM | 624 nM | > 10000 nM | – |
| O=C(c1cc(Cc2n[nH]c(=O)c3ccccc23)cc(F)c1F)N1CCN(c2ncc(Br)cn2)CC1 | 175 nM | – | – | – | – |
| O=C(c1cc(Cc2n[nH]c(=O)c3ccccc23)cc(F)c1F)N1CCN(c2ccc(O)cc2)CC1 | 0.6 nM | 27.1 nM | 3970 nM | > 10000 nM | – |
| O=C(c1cc(Cc2n[nH]c(=O)c3ccccc23)cc(F)c1F)N1CCN(C(=O)C2CC2)CC1 | 11.2 nM | – | – | – | – |
| O=C(c1cc(Cc2n[nH]c(=O)c3ccccc23)cc(F)c1F)N1CCN(c2ccc(Cl)cc2)CC1 | 103 nM | – | – | – | – |
| O=C(c1cc(Cc2n[nH]c(=O)c3ccccc23)cc(F)c1F)N1CCN(c2ccncc2)CC1 | 0.9 nM | 3.7 nM | 3290 nM | > 10000 nM | – |
| N#Cc1cccnc1NCCN(CCO)C(=O)c1cc(Cc2n[nH]c(=O)c3ccccc23)cc(F)c1F | – | – | – | – | Drug uptake [4]: Active; Retention_time [5]: 6.2 min |
| Cc1ccc(N2CCN(C(=O)c3cc(Cc4n[nH]c(=O)c5ccccc45)cc(F)c3F)CC2)cc1 | < 0.1 nM | 405 nM | 2080 nM | > 10000 nM | – |
| O=C(c1cc(Cc2n[nH]c(=O)c3ccccc23)cc(F)c1F)N1CCN(Cc2cccnc2)CC1 | 157 nM | – | – | – | – |
| N#Cc1cccnc1NCCN(CC(=O)O)C(=O)c1cc(Cc2n[nH]c(=O)c3ccccc23)cc(F)c1F | – | – | – | – | Drug uptake [4]: Active; Retention_time [5]: 6.7 min |
| O=C(c1cc(Cc2n[nH]c(=O)c3ccccc23)cc(F)c1F)N1CCN(C2CCCC2)CC1 | 2.6 nM | 10.6 nM | 284 nM | > 10000 nM | – |
| O=C(c1cc(Cc2n[nH]c(=O)c3ccccc23)cc(F)c1F)N1CCN(c2ccccc2F)CC1 | 55.8 nM | – | – | – | – |
| O=C(c1cc(Cc2n[nH]c(=O)c3ccccc23)cc(F)c1F)N1CCN(c2ccccc2)CC1 | 0.5 nM | 82.4 nM | 1940 nM | 6030 nM | – |
| CCN1CCN(C(=O)c2cc(Cc3n[nH]c(=O)c4ccccc34)cc(F)c2F)CC1 | 1.4 nM | 12.9 nM | 987 nM | > 10000 nM | – |
| O=C(c1ccccc1)N1CCN(C(=O)c2cc(Cc3n[nH]c(=O)c4ccccc34)cc(F)c2F)CC1 | 6.1 nM | – | – | – | – |
| O=C(c1cc(Cc2n[nH]c(=O)c3ccccc23)cc(F)c1F)N1CCN(C2CCCCCC2)CC1 | 0.8 nM | 6 nM | 42.6 nM | > 10000 nM | – |
| O=C(c1cc(Cc2n[nH]c(=O)c3ccccc23)cc(F)c1F)N1CCN(c2nccs2)CC1 | 0.2 nM | 6.3 nM | 137 nM | > 10000 nM | – |
| Cc1ccc(Cl)cc1N1CCN(C(=O)c2cc(Cc3n[nH]c(=O)c4ccccc34)cc(F)c2F)CC1 | 324 nM | – | – | – | – |
| O=C(c1cc(Cc2n[nH]c(=O)c3ccccc23)cc(F)c1F)N1CCN(c2ccccn2)CC1 | 0.1 nM | < 0.03 nM | < 3.2 nM | 924 nM | – |
| O=C(c1cc(Cc2n[nH]c(=O)c3ccccc23)cc(F)c1F)N1CCN(c2ccc(F)cc2)CC1 | 0.4 nM | 10.8 nM | 90.1 nM | 2850 nM | – |

Continued, in another order:

| IC50 [1] | IC50 (MDA-MB-436) | Compound | IC50 [2] | IC50 (V79) | other results |
| --- | --- | --- | --- | --- | --- |
| 2.3 nM | 25.7 nM | O=C(c1cc(Cc2n[nH]c(=O)c3ccccc23)cc(F)c1F)N1CCN(C(=O)N2CCOCC2)CC1 | 938 nM | > 10000 nM | – |
| 0.02 nM | < 0.05 nM | N#Cc1ccccc1N1CCN(C(=O)c2cc(Cc3n[nH]c(=O)c4ccccc34)cc(F)c2F)CC1 | 8.8 nM | 4340 nM | solubility at 24 h [3]: < 0.2 µg/mL |
| 52.2 nM | – | O=C(c1cc(Cc2n[nH]c(=O)c3ccccc23)cc(F)c1F)N1CCN(c2nsc3ccccc23)CC1 | – | – | – |
| 297 nM | – | COc1ccccc1N1CCN(C(=O)c2cc(Cc3n[nH]c(=O)c4ccccc34)cc(F)c2F)CC1 | – | – | – |
| 0.9 nM | 0.3 nM | O=C(c1cc(Cc2n[nH]c(=O)c3ccccc23)cc(F)c1F)N1CCN(c2ccccc2O)CC1 | 31.7 nM | 7830 nM | – |
| 96.8 nM | – | O=C(c1cc(Cc2n[nH]c(=O)c3ccccc23)cc(F)c1F)N1CCN(Cc2ccccc2)CC1 | – | – | – |
| 9.7 nM | – | O=C(c1cc(Cc2n[nH]c(=O)c3ccccc23)cc(F)c1F)N1CCN(CC2CC2)CC1 | – | – | – |
| 29.1 nM | – | Cc1ccc(C(=O)N2CCN(C(=O)c3cc(Cc4n[nH]c(=O)c5ccccc45)cc(F)c3F)CC2)cc1 | – | – | – |
| 83.4 nM | – | O=C(c1cc(Cc2n[nH]c(=O)c3ccccc23)cc(F)c1F)N1CCN(c2ccc(Br)cc2)CC1 | – | – | – |
| 0.4 nM | 9.4 nM | O=C(c1cc(Cc2n[nH]c(=O)c3ccccc23)cc(F)c1F)N1CCN(c2ccc([N+](=O)[O-])cc2)CC1 | 206 nM | > 10000 nM | – |
| 70.5 nM | – | O=C(c1cc(Cc2n[nH]c(=O)c3ccccc23)cc(F)c1F)N1CCN(c2ncc(C(F)(F)F)cn2)CC1 | – | – | – |
| 5.1 nM | – | N#Cc1cccc(N2CCN(C(=O)c3cc(Cc4n[nH]c(=O)c5ccccc45)cc(F)c3F)CC2)n1 | – | – | – |
| 2.9 nM | – | O=C(c1cc(Cc2n[nH]c(=O)c3ccccc23)cc(F)c1F)N1CCN(c2ncccn2)CC1 | – | – | – |
| 7.1 nM | – | CC(=O)N1CCN(C(=O)c2cc(Cc3n[nH]c(=O)c4ccccc34)cc(F)c2F)CC1 | – | – | – |
| 3.5 nM | – | O=C(c1cc(Cc2n[nH]c(=O)c3ccccc23)cc(F)c1F)N1CCN(C2CCCCC2)CC1 | – | – | – |
